# From US11535856B2, “Stilbenoid prenyltransferases from plants” (Arkansas State University—Jonesboro, priority 2016, dated 2022)
# B1: AhR3′DT-2: stilbenoid prenyltransferase, GenBank KY565246 (protein, listed as Arachis hypogaea)
# chain: MPFGLSASFLKSRSFHHHGTRRALWNNNGKLSKEYCIKMQHNYWKNHCTNLKGGSMMSDDKFEKKYLVNATSKNSHDEPKKSQPILEFIKDGMDTFRQFSRLYAFFSFISSGLSSSLLAVDNLSNISPKMFLIGFLQFLIPNCIMFQYIVGVNQLADIEIDKINKPYLPLASGKYSLRNAIIIVASSLLMGFGSAWVLGSRPMFWCLVISTMLMTAYSVNLPLLRWKRSTILATLSLASSMTIGQHIAPFLHMKTVLKKALNYPRSLVFTVVVVSLFYTVISLAKDIPDIEGDKAAGHKTLAIHLGPRRVFWFCISLLQMTYGIAIIMGALSPILWSKIFTVVTHFIMSIILWYRANSVDLSNNDSLQSFYMAIFVFLSVENFLVLFVR
# B2: AhR3′DT-3: stilbenoid prenyltransferase, GenBank KY565247 (protein, listed as Arachis hypogaea)
# chain: MPFGLSASFLKSRSLHHHGWKFLKEREIHKQPLRNTRRALWNNNGKLSKEYCIKMQHNYWKNHCTNLKGGSMMSDDKFEKKYLVNATSKNSHDEPKKSQPILEFIKDGMDTFRQFSRLYAFFSFISSGLSSSLLAVDNLSNISPKMFLIGFLQFLIPNCIMFQYIVGVNQLADIEIDKINKPYLPLASGKYSLRNAIIIVASSLIMGFGSAWVLGSRPMFWCLVISTMLMTAYSVNLPLLRWKRSTILATLSLASSMTIGQHIAPFLHMKTVLKKALNYPRSLVFTVVVVSLFYTVISLAKDIPDIEGDKAAGHKTLAIHLGPRRVFWFCISLLQMTYGIAIIMGALSPILWSKIFTVVTHFIMSIILWYRANSVDLSNNDSLQSFYMAIFVFLSVENFLVLFVR
# B3: AhR3′DT-4: stilbenoid prenyltransferase, GenBank KY565248 (protein, listed as Arachis hypogaea)
# chain: MASTSRLLLHASLPPPTTSISKTNSGSHAVIRSIWHNNGKYPKEKTCIETPLLLQHNQKHHYTCDQIKRKHFVKATHAQSKNEPEPQADSAKPIWNSIKDVMHTIQKFSVFYALIGLLSGILSSSLLAVEKLSDLSPTFFISMLQFMAAYSSMQLYTTGVNQLADIEIDKINKPYRPLASSKISFGGGLAIVAASLFMSFGLALMIGSKPLLWGLILIFILMTAYSVNLPFLRWKKSTILTLLSGVPTILTAYNLAPYLHMKTFVLKKPFIFTRSLAFTTVVMTFFYVVISLFKDIPDIEGDKKEGLQTLSIRLGPKRVFWLCISLLEMTYGIAIIMGLTSPFLWSKIFTVMAHAINAWILWFRANSVDLKSKEDFQSFYMFIFKLLYLENVLVLFVR
# Columns and labels:
# [1] = test system: resveratrol prenyltransferase AhR4DT; test: Prenyltransferase assay with microsomal fraction of elicited peanut hairy roots; assay type: biochemical, Arachis hypogaea; conditions: for resveratrol prenyltransferase activity relative to Mg^2+: 10 mM divalent cation; for prenylation as prenyl acceptor: 100 μM acceptor, 300 μM DMAPP
# AhR4DT-1 = AhR4DT-1 (Arachis hypogaea, UniProt A0A2H4GDC8); test: AhR4DT-1 activity in microsomal fraction of N. benthamiana leaves; conditions: for AhR4DT-1 activity relative to Mg^2+: 10 mM divalent cation or EDTA; for prenylation as prenyl acceptor: DMAPP as prenyl donor; for activity as prenyl donor: 300 μM donor, 100 μM resveratrol as prenyl acceptor
# Sequence of AhR4DT-1 (A0A2H4GDC8 entry or part of it): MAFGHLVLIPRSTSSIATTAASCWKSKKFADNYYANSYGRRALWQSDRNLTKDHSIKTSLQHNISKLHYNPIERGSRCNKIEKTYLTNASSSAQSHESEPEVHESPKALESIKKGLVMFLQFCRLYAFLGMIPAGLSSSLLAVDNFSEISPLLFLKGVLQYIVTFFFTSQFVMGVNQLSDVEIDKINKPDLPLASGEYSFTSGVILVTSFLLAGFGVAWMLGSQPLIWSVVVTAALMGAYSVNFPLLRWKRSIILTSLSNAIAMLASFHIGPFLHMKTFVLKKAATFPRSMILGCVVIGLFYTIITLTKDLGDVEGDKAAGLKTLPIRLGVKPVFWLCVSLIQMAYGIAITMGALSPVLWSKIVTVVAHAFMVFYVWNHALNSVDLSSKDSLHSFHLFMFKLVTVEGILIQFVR
# AhR3′DT-1 = AhR3′DT-1 (Arachis hypogaea, UniProt A0A2H4GDD0); test: AhR3′DT-1 activity in microsomal fraction of N. benthamiana leaves; conditions: for AhR3′DT-1 activity relative to Mg^2+: 10 mM divalent cation or EDTA; for prenylation as prenyl acceptor: DMAPP as prenyl donor; for activity as prenyl donor: 300 μM donor, 100 μM resveratrol as prenyl acceptor
# Sequence of AhR3′DT-1 (A0A2H4GDD0 entry or part of it): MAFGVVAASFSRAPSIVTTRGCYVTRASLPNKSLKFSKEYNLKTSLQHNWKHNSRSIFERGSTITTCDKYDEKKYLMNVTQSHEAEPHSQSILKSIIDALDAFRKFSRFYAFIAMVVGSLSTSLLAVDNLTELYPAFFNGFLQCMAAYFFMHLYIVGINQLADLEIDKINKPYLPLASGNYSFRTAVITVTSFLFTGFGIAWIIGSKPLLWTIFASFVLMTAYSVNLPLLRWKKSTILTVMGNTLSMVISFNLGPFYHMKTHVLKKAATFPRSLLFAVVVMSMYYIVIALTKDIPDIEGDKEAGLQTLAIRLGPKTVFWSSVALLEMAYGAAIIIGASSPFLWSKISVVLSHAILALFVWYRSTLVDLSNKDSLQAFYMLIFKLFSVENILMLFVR
# [2] = test system: peanut hairy root cultures; test: Inhibitor feeding experiment in elicited peanut hairy root cultures; assay type: cell-based, Arachis hypogaea
# resveratrol prenylation = test: Screening for stilbenoid prenylation activity, crude extract of infiltrated N. benthamiana leaves; assay type: biochemical, Arachis hypogaea; conditions: resveratrol and DMAPP as substrates
# Experimental: The engineered A. tumefaciens was grown in 5 mL of YEP medium, containing 50 mg/L of kanamycin (Sigma-Aldrich) and 30 mg/L of streptomycin (Sigma-Aldrich) for antibiotic selection, at 28° C. on an orbital shaker at 200 rpm. After cultivation for 2 days, 5 mL of bacterial suspension was inoculated into 50 mL of fresh YEP medium containing the antibiotics and allowed to grow for one additional day under the same conditions. Bacteria were pelleted by centrifugation, resuspended in 500 mL of induction medium containing 10 mM MgCl2 with 1 mM acetosyringone and incubated for 4 h at 28° C. under 200 rpm orbital shaking until their OD600 reached to a range from 0.5 to 0.6. Before the infiltration, 0.005% of Tween-20, 0.005% of Triton 100 and 0.005% of Silwet L-77 were added to bacterial cultures to enhance the efficiency of transformation in N. benthamiana leaves. Agrobacterium-mediated vacuum infiltration was performed on 4-week-old N. benthamiana following the methodology described previously (Medrano et al., 2009).
# After 48 hours of post-infiltration, the “middle tier” of N. benthamiana leaves were harvested for prenylation activity screening. Five grams of leaf tissue (fresh weight) were grounded and homogenized using a mortar with pestle in 10 mL of extraction buffer containing 100 mM Tris-HCl (pH 7.6) and 10 mM dithiothreitol (DTT). […] The total protein concentration was determined by coomassie protein assay (Thermo Scientific) using bovine serum albumin as standard.
# The reaction of crude cell-free extract of N. benthamiana leaves infiltrated with A. tumefaciens harboring the empty pBIB-Kan vector was used as control.
# [3] = 10 μM mevastatin, 72-h treatment
# [4] = 100 clomazone with elicitors, 72 h
molecule,measurement,setting,value
[Mn+2] [Mn^2+],resveratrol prenyltransferase activity relative to Mg^2+,[1],71.8%
same,AhR4DT-1 activity relative to Mg^2+,AhR4DT-1,83.9%
same,efficiency relative to Mg^2+,AhR3′DT-1,2.1 fold
same,AhR3′DT-1 activity relative to Mg^2+,AhR3′DT-1,210.3%
O=c1c(-c2ccc(O)cc2)coc2cc(O)cc(O)c12 [genistein],prenylation as prenyl acceptor,AhR4DT-1,"neither prenylated flavanone, prenylated flavone, nor prenylated isoflavone was detected"
same,prenylation as prenyl acceptor,AhR3′DT-1,"neither prenylated flavanone, prenylated flavone, nor prenylated isoflavone was detected"
[Mg+2] [Mg^2+],resveratrol prenyltransferase activity relative to Mg^2+,[1],100%
same,AhR4DT-1 activity relative to Mg^2+,AhR4DT-1,100%
same,AhR3′DT-1 activity relative to Mg^2+,AhR3′DT-1,100%
[Fe+2] [Fe^2+],resveratrol prenyltransferase activity relative to Mg^2+,[1],14.6%
same,AhR4DT-1 activity relative to Mg^2+,AhR4DT-1,6.4%
same,AhR3′DT-1 activity relative to Mg^2+,AhR3′DT-1,34.8%
CC[C@H](C)C(=O)O[C@H]1CCC=C2C=C[C@H](C)[C@H](CC[C@@H]3C[C@@H](O)CC(=O)O3)[C@H]21 [mevastatin],"yields of resveratrol, piceatannol and prenylated stilbenoids",[2]; 10 μM mevastatin with elicitors,no significant effect
same,increase in yield of arachidin-1,[2]; [3],41%
same,increase in yield of arachidin-5,[2]; [3],27%
same,"accumulation of arachidin-5, arachidin-1, arachidin-2 and arachidin-3",[2]; 24-h interval between 48 and 72-h treatments,did not inhibit the accumulation
same,levels of prenylated stilbenoids,"[2]; mevastatin at 1, 10, or 100 μM with 100 μM MeJA and 9 g/L CD, preliminary experiments",did not affect the levels of prenylated stilbenoids
O=C(O)CN(CCN(CC(=O)O)CC(=O)O)CC(=O)O [EDTA],AhR4DT-1 activity relative to Mg^2+,AhR4DT-1,no activity was detected
same,AhR3′DT-1 activity relative to Mg^2+,AhR3′DT-1,no activity was detected
O=c1cc(-c2ccc(O)cc2)oc2cc(O)cc(O)c12 [apigenin],prenylation as prenyl acceptor,AhR4DT-1,"neither prenylated flavanone, prenylated flavone, nor prenylated isoflavone was detected"
same,prenylation as prenyl acceptor,AhR3′DT-1,"neither prenylated flavanone, prenylated flavone, nor prenylated isoflavone was detected"
"CC(C)=CCC/C(C)=C/CC/C(C)=C/CC/C(C)=C/COP(=O)(O)OP(=O)(O)O [GGPP, geranylgeranyl pyrophosphate]",activity as prenyl donor,AhR4DT-1,Neither AhR4DT-1 nor AhR3′DT-1 showed any detectable activity
same,activity as prenyl donor,AhR3′DT-1,Neither AhR4DT-1 nor AhR3′DT-1 showed any detectable activity
"Oc1cc(O)cc(/C=C/c2ccc(O)c(O)c2)c1 [piceatannol, 3,5,3′,4′-tetrahydroxy-trans-stilbene]",prenylation as prenyl acceptor,[1],catalyzed the synthesis of arachidin-5 as the predominant prenylated product
same,Vmax for AhR4DT-1 relative to AhR3′DT-1,AhR4DT-1,6.9 fold
same,prenylation as prenyl acceptor,AhR4DT-1,can selectively catalyze
same,prenylation as prenyl acceptor,AhR3′DT-1,prenylated products of piceatannol and prenylated oxyresveratrol were identified
Oc1cc(O)cc(/C=C/c2ccccc2)c1 [pinosylvin],prenylation as prenyl acceptor,[1],catalyzed pinosylvin into chiricanine A
same,prenylation as prenyl acceptor,AhR4DT-1,can selectively catalyze
same,prenylation as prenyl acceptor,AhR3′DT-1,no prenylated pinosylvin was produced
"CC(C)=CCOP(=O)(O)OP(=O)(O)O [DMAPP, dimethylallyl pyrophosphate]",Km,"[1]; microsomal fraction of peanut hairy roots, 28° C., 60 min, read-out: apparent km",91.9 ± 7.03 µM
same,Vmax for AhR4DT-1 relative to AhR3′DT-1,AhR4DT-1,5.8 fold
CC1(C)CON(Cc2ccccc2Cl)C1=O [clomazone],yields of prenylated stilbenoids compared to non-inhibitor group,[2]; 10 μM and 100 μM clomazone,significantly lower yields of prenylated stilbenoids
same,yields of resveratrol compared to non-inhibitor group,[2]; 10 μM and 100 μM clomazone,significantly higher yields of resveratrol
same,piceatannol produced,[2]; 100 μM clomazone,9.02 µM
same,resveratrol produced,[2]; 100 μM clomazone,845.7 µM
same,accumulation of arachidin-5 and arachidin-1,"[2]; 100 μM clomazone, 48-hour",almost completely inhibited
same,piceatannol concentration,"[2]; 100 μM clomazone, 72 h",increased only slightly
same,yield of resveratrol,[2]; [4],830.73 ± 25.83 µM
same,yield of resveratrol relative to non-inhibitor group,[2]; [4],6.3 fold
same,effects on accumulation of resveratrol and inhibition of prenylated stilbenoids accumulation,[2]; clomazone 1 μM to 100 μM with elicitors,increased with the concentration of clomazone
same,"micromolar increase of resveratrol relative to overall decrease of arachidin-5, -1, -2 and -3",[2]; clomazone with elicitors,about 1.54 fold
same,levels of all prenylated stilbenoids,"[2]; clomazone, 24-h interval between 48- and 72-h time points",no significant increases
same,production of stilbenoids without elicitors,"[2]; different concentrations of clomazone, no elicitors",none of these stilbenoids was detected
[Ca+2] [Ca^2+],resveratrol prenyltransferase activity relative to Mg^2+,[1],0.9%
Oc1cc(O)cc(/C=C/c2ccc(O)cc2O)c1 [oxyresveratrol],prenylation as prenyl acceptor,[1],an isoprene unit was also transferred to oxyresveratrol
same,prenylation as prenyl acceptor,AhR4DT-1,can selectively catalyze
same,prenylation as prenyl acceptor,AhR3′DT-1,prenylated products of piceatannol and prenylated oxyresveratrol were identified
O=C1C[C@@H](c2ccc(O)cc2)Oc2cc(O)cc(O)c21 [naringenin],prenylation as prenyl acceptor,AhR4DT-1,"neither prenylated flavanone, prenylated flavone, nor prenylated isoflavone was detected"
same,prenylation as prenyl acceptor,AhR3′DT-1,"neither prenylated flavanone, prenylated flavone, nor prenylated isoflavone was detected"
"CC(C)=CCC/C(C)=C/CC/C(C)=C/COP(=O)(O)OP(=O)(O)O [FPP, farnesyl pyrophosphate]",activity as prenyl donor,AhR4DT-1,Neither AhR4DT-1 nor AhR3′DT-1 showed any detectable activity
same,activity as prenyl donor,AhR3′DT-1,Neither AhR4DT-1 nor AhR3′DT-1 showed any detectable activity
"CC(C)=CCC/C(C)=C/COP(=O)(O)OP(=O)(O)O [GPP, geranyl pyrophosphate]",activity as prenyl donor,AhR4DT-1,Neither AhR4DT-1 nor AhR3′DT-1 showed any detectable activity
same,activity as prenyl donor,AhR3′DT-1,Neither AhR4DT-1 nor AhR3′DT-1 showed any detectable activity
B1,activity level relative to AhR3′DT-1,resveratrol prenylation,18%
B2,activity level relative to AhR3′DT-1,resveratrol prenylation,17%
B3,activity level relative to AhR3′DT-1,resveratrol prenylation,5%
